Reference: patent publication US9526766B2, “Potentiation of antibiotic treatment with a protein-lipid complex” (priority 2012, dated 2016)
“Also recorded” adds a separate entry of the source. Like-named read-outs stand apart in the source and are kept apart here.

Experiments:
Acinetobacter baumanni = experiment: MIC by broth microdilution, antibiotics with and without ALAFAC; type: cell-based; conditions: agent alone
Procedure: (§1) Methodology: Minimal inhibitory concentrations (MICs) were determined in 96-well microtiter plates using the microdilution method according to approved standards of the CLSI except that Todd-Hewitt medium supplemented with 0.5% yeast extract, which yields reproducible MIC results was used as the test medium for S. pneumoniae. For the remaining species Mueller-Hinton medium was used as indicated by the CLSI standard. Each well contained two-fold dilutions of antibiotic, was seeded with a final bacterial concentration of 10^5 CFU/mL, and was incubated for 18 h at 37° C. in a Synergy II microplate reader (Biotek, Winooski, Vt.) where the OD600 was recorded every 5 minutes to monitor bacterial growth. The MIC was defined as the lowest concentration of antimicrobial agent solution at which no increase in OD600 was detected.
(§2) In vitro susceptibility tests. Minimal inhibitory concentrations (MICs) were determined in 96-well microtiter plates using the microdilution method according to approved standards of the CLSI except that Todd-Hewitt medium supplemented with 0.5% yeast extract, which yields reproducible MIC results was used as the test medium for S. pneumoniae. MICs for A. baumanni, and M. catarrhalis were determined in MH media. Two-fold dilutions of a starting antibiotic concentration was added in triplicate into microtiter plate wells (in 96-well plates), were seeded with a final bacterial concentration of ˜10^5 colony forming units (CFU)/mL, and was incubated for 18 h in ambient air at 37° C. in a Synergy II microplate reader (Biotek, Winooski, Vt.) where the OD600 was recorded every 5 minutes to monitor bacterial growth. The MIC was defined as the lowest concentration of antimicrobial agent solution at which no increase in OD600 was detected.

Moraxella catarrhalis = experiment: as above; type: cell-based; conditions: agent alone
Procedure: as §1, §2

Streptococcus pneumoniae [1] = experiment: as above; type: cell-based
Procedure: as §1, §2

Streptococcus pneumoniae [2] = experiment: Short-time kill assay on planktonic cultures; type: cell-based; conditions: for Minimum antibiotic concentration for bactericidal (>3 log10) activity, planktonic: within 4-6 hours, antibiotic alone
Procedure: (§3) Methodology: In late logarithmic growth phase, the bacteria were harvested by centrifugation at 12,000×g for 10 minutes and resuspended in phosphate-buffered saline (PBS; […], […], […], pH 7.4). Appropriate dilutions of the bacteria were suspended in PBS and treated with indicated concentrations of ALAFAC and/or antibiotics for various times. The effect on bacterial viability was assessed by plating serial dilutions of bacterial sample on tryptic soy agar plates containing 5% sheep blood (viable counts) and determining viable colony forming units after overnight growth at 37° C.
Short-time kill assays. In late logarithmic growth phase, the bacteria were harvested by centrifugation at 12,000×g for 10 minutes and resuspended in phosphate-buffered saline (PBS; 30 mM Na2HPO4, 10 mM KH2PO4, […], pH 7.4). Appropriate concentrations of the bacteria (around 10^8 colony forming units per ml) were suspended in PBS and treated with indicated concentrations of ALAFAC and/or antibiotics for various times. The effect on bacterial viability was assessed by plating serial dilutions of bacterial sample on tryptic soy agar plates containing 5% sheep blood (viable counts) and determining viable CFUs after overnight growth at 37° C.

Staphylococcus aureus = experiment: Bactericidal activity on planktonic cultures; type: cell-based; conditions: antibiotic alone
Procedure: as §3

[3] = system: Staphylococcus aureus biofilms; experiment: Static biofilm model, viable counts; type: cell-based; conditions: for Biofilm bactericidal activity, reduction in viable bacteria: MRSA NRS 70 and MSSA 11090306 biofilms, 24 hours, ALAFAC 200 μg/mL (12 μM), methicillin 250 μg/mL (660 μM); for Biofilm bactericidal activity, reduction in viable bacteria / Biofilm viability: alone or combined; for Biofilm death / reduction in biofilm biomass: methicillin 1,000 μg/ml monotherapy, combination with 100 μg/ml ALAFAC; for Minimum antibiotic concentration for bactericidal (>3 log10) activity on biofilms: 12 hours, antibiotic alone; for Biofilm viability: NRS 1 and NRS 384 biofilms, ALAFAC 500 μg/ml (30 μM), gentamicin 50 μg/ml (105 μM)
Procedure: Static Biofilm Model. Staphylococci were grown in TSB to mid-logarithmic phase (OD600=0.5), washed, and resuspended in fresh pre-warmed medium to a density of 2×10^4 CFU in 500 μl volume, and suspensions were used to seed polystyrene 24-well plates. Bacteria were cultured at 37° C. for 12 hours, after which biofilms were washed with PBS to eliminate planktonic bacteria and were exposed to TSB with indicated concentrations of ALAFAC and/or antibiotics for 24 hours at 37° C. Biofilms were then washed in PBS, sonicated and detached by scraping the surface in the presence of 100 μL PBS followed by a rinse with 100 μL PBS. Collected cells were vortexed twice for 20 seconds at high speed and the dispersed biofilm cells were first observed by microscopy to ensure proper dispersion and then diluted in a 10-fold dilution series where 100 μl of each dilution was plated on blood agar plates to determine viable CFUs per ml after overnight growth at 37° C. Colony counts from plates carrying 20-200 colonies were used to determine the viable counts and are reported as the total number of colony-forming units per biofilm.

S. pneumoniae D39 = experiment: Autolysis by optical density at 600 nm; type: cell-based, Streptococcus pneumoniae
From the text: Most agents that kill pneumococci, including […] and cell wall-active anti-bacterials activate the major autolysin LytA to induce lysis of the bacteria, which can easily be detected by eye as a clearing of the bacterial suspension upon treatment and measured by a decrease in OD600 nm over time. In comparison, antibiotics acting on bacterial DNA, RNA, or protein synthesis show reduced, though still significant, levels of cell lysis. However, during our combination treatments with […] and gentamicin above we observed no detectable lysis. […] The lack of lysis from combination treatment may be beneficial for the host in reducing the host inflammation associated with bacterial components after lysis.

[4] = S. aureus NRS384, within 4-6 hours
[5] = S. pneumoniae EF3030, agent alone
[6] = S. pneumoniae in liquid culture
[7] = D39, 1 hour, ALAFAC 50 μg/ml, gentamicin 50 μg/ml, alone or combined, 7.7 log10 inoculum
[8] = sublethal ALAFAC (50 μg/ml), low gentamicin, alone or combined

CC1(C)S[C@@H]2[C@H](NC(=O)Cc3ccccc3)C(=O)N2[C@H]1C(=O)O [Penicillin, penicillin G]
MIC (Acinetobacter baumanni; A. baumanni AB307): >100 µg/mL | MIC (Acinetobacter baumanni; A. baumanni AB979): >100 µg/mL | MIC (Acinetobacter baumanni; A. baumanni AB979, listed as penicillin): exceeded 100 μg/ml | MIC (Acinetobacter baumanni; Acinetobacter, A. baumanni AB307, read-out: MIC): > 100 µg/mL | MIC (Moraxella catarrhalis; M. catarrhalis 7169 (MC7169)): >50 µg/mL | MIC (Moraxella catarrhalis; M. catarrhalis BC8 (MCBC8)): >50 µg/mL | MIC (Moraxella catarrhalis; M. catarrhalis BC8 (MCBC8), listed as penicillin): exceeded 50 μg/ml | MIC (Moraxella catarrhalis; Moraxella catarrhalis, M. catarrhalis 7169 (MC7169), read-out: MIC): > 50 µg/mL | MIC (Streptococcus pneumoniae [1]; Streptococcus pneumoniae, S. pneumoniae D39, agent alone, read-out: MIC): 0.01 µg/mL | MIC (Streptococcus pneumoniae [1]; Streptococcus pneumoniae, S. pneumoniae EF3030, agent alone, read-out: MIC): 0.01 µg/mL | MIC (Streptococcus pneumoniae [1]; Streptococcus pneumoniae, S. pneumoniae SP670 (penicillin-resistant), agent alone, read-out: MIC): 4 µg/mL | Short-time killing (death of inoculum) (Streptococcus pneumoniae [2]; D39, 4 hours, ALAFAC 50 μg/ml, penicillin G 20 μg/ml, alone or combined, 7.5 log10 inoculum): no bactericidal activity; also recorded: no death | Short-time killing (Streptococcus pneumoniae [2]; D39, penicillin G alone at 5,000 μg/ml, 4 hours): ≤ 2.6 log10 | Short-time killing (Streptococcus pneumoniae [2]; D39, penicillin alone at 50-fold higher concentration (1,000 μg/ml), 4 hours): ≤ 2.6 log10 | Bactericidal activity alone (Streptococcus pneumoniae [2]; D39 and EF3030, 1 hour, penicillin G up to 5,000 μg/ml, erythromycin up to 1,000 μg/ml): lacked any bactericidal activity | Minimum antibiotic concentration for bactericidal (>3 log10) activity, planktonic (Streptococcus pneumoniae [2]; S. pneumoniae D39): >5,000 μg/ml | Minimum antibiotic concentration for bactericidal (>3 log10) activity, planktonic (Streptococcus pneumoniae [2]; S. pneumoniae SP670): >5,000 μg/ml | Short-time killing (Streptococcus pneumoniae [2]; SP670, penicillin 30 μg/mL alone or with ALAFAC 50 μg/mL, 4 hours): no bactericidal activity

COc1cccc(OC)c1C(=O)N[C@@H]1C(=O)N2[C@@H]1SC(C)(C)[C@@H]2C(=O)O [Methicillin, methicillin]
Minimum antibiotic concentration for bactericidal (>3 log10) activity, planktonic (Staphylococcus aureus; S. aureus 10307570): >128 μg/ml | Minimum antibiotic concentration for bactericidal (>3 log10) activity, planktonic (Staphylococcus aureus; S. aureus 11090306): 64 μg/ml | Minimum antibiotic concentration for bactericidal (>3 log10) activity, planktonic (Staphylococcus aureus; S. aureus NRS1): >128 μg/ml | Minimum antibiotic concentration for bactericidal (>3 log10) activity, planktonic (Staphylococcus aureus; S. aureus NRS70): 128 μg/ml | Minimum antibiotic concentration for bactericidal (>3 log10) activity, planktonic (Staphylococcus aureus; S. aureus NRS71): >128 μg/ml | Minimum antibiotic concentration for bactericidal (>3 log10) activity, planktonic (Staphylococcus aureus; S. aureus NRS100): >128 μg/ml | Minimum antibiotic concentration for bactericidal (>3 log10) activity, planktonic (Staphylococcus aureus; S. aureus NRS123): >128 μg/ml | Minimum antibiotic concentration for bactericidal (>3 log10) activity, planktonic (Staphylococcus aureus; [4]): >128 μg/ml | Biofilm bactericidal activity, reduction in viable bacteria [3]: failed to induce bactericidal activity | Biofilm death / reduction in biofilm biomass ([3]; MRSA NRS70 biofilm): 0.16 log10 | Biofilm death / reduction in biofilm biomass ([3]; MSSA 11090306 biofilm): 1 log10 | Minimum antibiotic concentration for bactericidal (>3 log10) activity on biofilms ([3]; S. aureus 11090306 biofilm): >1000 μg/ml | Minimum antibiotic concentration for bactericidal (>3 log10) activity on biofilms ([3]; S. aureus NRS70 biofilm): >1000 μg/ml

gentamicin
MIC (Acinetobacter baumanni; A. baumanni AB307): 36 µg/mL | MIC (Acinetobacter baumanni; A. baumanni AB979): 2.5 µg/mL | MIC (Moraxella catarrhalis; M. catarrhalis 7169 (MC7169)): 25 µg/mL | MIC (Moraxella catarrhalis; M. catarrhalis BC8 (MCBC8)): 25 µg/mL | MIC (Streptococcus pneumoniae [1]; S. pneumoniae D39, agent alone): 16 µg/mL | MIC (Streptococcus pneumoniae [1]; [5]): 16 µg/mL | MIC (Streptococcus pneumoniae [1]; [6]): 16 µg/mL | Short-time killing (Streptococcus pneumoniae [2]; [7]): insignificant killing | Minimum antibiotic concentration for bactericidal (>3 log10) activity, planktonic (Streptococcus pneumoniae [2]; S. pneumoniae D39): >500 μg/ml | Minimum antibiotic concentration for bactericidal (>3 log10) activity, planktonic (Streptococcus pneumoniae [2]; S. pneumoniae EF3030): >500 μg/ml | Short-time killing (Streptococcus pneumoniae [2]; gentamicin alone at high concentrations, up to 1,000 μg/ml, 1 hour): 1.4 log10 | Short-time killing (Streptococcus pneumoniae [2]; gentamicin alone at high concentrations, up to 1,000 μg/ml, 1 hour, listed as gentamicin): ≤ 1.4 log10 | Minimum antibiotic concentration for bactericidal (>3 log10) activity, planktonic (Staphylococcus aureus; [4]): 50 μg/ml | Biofilm viability [3]: Neither ALAFAC (500 μg/ml; 30 μM) nor gentamicin (50 μg/ml; 105 μM) had any effect | Autolysis (OD600) (S. pneumoniae D39; [8]): failed to lyse

B1: ALAFAC: non-covalent complex of alpha-lactalbumin and fatty acid (oleic acid); labeled HAMLET or HL in drawings and tables (protein, UniProt P00709 20-142, looked up)
Alpha-lactalbumin: KQFTKCELSQLLKDIDGYGGIALPELICTMFHTSGYDTQAIVENNESTEYGLFQISNKLWCKSSQVPQSRNICDISCDKFLDDDITDDIMCAKKILDIKGIDYWLAHKALCTEKLEQWLCEKL
modifications: complexed with oleic acid
MIC (Streptococcus pneumoniae [1]; S. pneumoniae D39, agent alone): 20 µg/mL | MIC (Streptococcus pneumoniae [1]; [5]): 20 µg/mL | MIC (Streptococcus pneumoniae [1]; S. pneumoniae JY53 (erythromycin-resistant), agent alone): 20 µg/mL | MIC (Streptococcus pneumoniae [1]; S. pneumoniae SP670 (penicillin-resistant), agent alone): 20 µg/mL | MIC (Streptococcus pneumoniae [1]; [6]): ≈ 20 μg/ml | Short-time killing (Streptococcus pneumoniae [2]; [7]): insignificant killing | Short-time killing (Streptococcus pneumoniae [2]; D39, 4 hours, ALAFAC 50 μg/ml, erythromycin 200 μg/ml, alone or combined, 7.2 log10 inoculum): insignificant bactericidal activity | Fold higher concentration of ALAFAC alone required for activity similar to the combination (Streptococcus pneumoniae [2]; D39, versus 50 μg/ml ALAFAC + 20 μg/ml penicillin G, 4 hours): > 5 fold | Concentration required to eradicate each inoculum (Streptococcus pneumoniae [2]; all pneumococcal strains, 1 hour): approximately 15 times the MIC | Concentration to eradicate an inoculum of 10^8 pneumococci (Streptococcus pneumoniae [2]; time-kill assay, 1 hour): 300 μg/ml | Biofilm bactericidal activity, reduction in viable bacteria [3]: failed to induce bactericidal activity | Biofilm death / reduction in biofilm biomass ([3]; MRSA NRS70 biofilm): no death | Biofilm death / reduction in biofilm biomass ([3]; MSSA 11090306 biofilm): no death | Biofilm viability [3]: Neither ALAFAC (500 μg/ml; 30 μM) nor gentamicin (50 μg/ml; 105 μM) had any effect | Autolysis (OD600) (S. pneumoniae D39; ALAFAC alone at a lethal concentration (250 μg/ml)): rapid lysis | Autolysis (OD600) (S. pneumoniae D39; [8]): small decrease in optical density
